Laboratory results from ChEMBL document CHEMBL5726682, “Autotaxin inhibitor compounds” (2017).

What follows are compounds tested against Autotaxin (Homo sapiens, UniProt Q13822) (assay: Inhibition Assay: ATX activity is assayed in concentrated conditioned media from Hep3B human hepatocellular carcinoma cells by measuring the amount of choline released from the substrate, lysophosphatidylcholine (LPC) as it is cleaved to LPA. Conditioned media is collected from confluent Hep3B cells and concentrated 20-fold using Centriprep-30 filter devices (Millipore). To assay for autotaxin inhibition, 10-20 μL of the concentrated conditioned media is incubated with 2.5 μL of a test compound in DMSO and 72.5-82.5 μL lyso-PLD buffer (100 mM Tris pH 9, 500 mM NaCl, 5 mM MgCl2, 5 mM CaCl2, 0.05% Triton X-100 in the presence or absence of 0.2% fatty-acid-free human serum albumin) for 15 min at 37° C. After the 15 min incubation, 5 uL of 2 mM LPC (14:0; Avanti Polar Lipids Cat#855575C) diluted in lyso-PLD buffer is added for a final concentration of 100 uM and the incubation continues for 1.5-3 hours at 37° C. 100 μL of a color mix containing 4.5 mM 4-aminoantipyrine, 2.7 mM N-ethyl-N-(2-hydroxy-3-sulfopropyl)-m-toluidine, 21 units/ml horseradish peroxidase and 3 units/mL choline oxidase in 50 mM Tris, pH 8, 4.5 mM MgCl2 is added and the incubation continued for 15 minutes at room temperature before reading the absorbance at 555 nm.).

IC50	SMILES
< 500 nM	Cc1c(Sc2cccc(C(=O)O)c2)c2ccc(Cl)c(F)c2n1CC(=O)N1CCc2ccc(C(F)(F)F)cc21
< 500 nM	Cc1c(Sc2cccc(C(=O)O)c2)c2ccc(Cl)c(F)c2n1CC(=O)N1CCc2c(F)cccc21
< 500 nM	Cc1c(Sc2cccc(C(=O)O)c2)c2ccc(Cl)c(F)c2n1CC(=O)N1CC2(CCN(C)CC2)C1
< 500 nM	Cc1c(Sc2cccc(C(=O)O)c2)c2ccc(Cl)c(F)c2n1CCC(=O)Nc1ccccc1
< 500 nM	Cc1c(Sc2cccc(C(=O)O)n2)c2ccc(Cl)c(F)c2n1CC(=O)N1CCC(O)(C(F)(F)F)C1 (centres undefined)
> 3000 nM	Cc1c(Sc2cccc(C(=O)O)c2)c2ccc(Cl)cc2n1C(=O)NCc1ccccc1
< 500 nM	Cc1c(Sc2cccc(C(=O)O)n2)c2ccc(Cl)c(F)c2n1CC(=O)N1CCC2(CC1)CNC(=O)O2
< 500 nM	Cc1c(Sc2cccc(C(=O)O)c2)c2ccc(Cl)c(F)c2n1CC(=O)N1CCC2(COC2)C1
< 500 nM	Cc1c(Sc2cccc(C(=O)O)c2)c2ccc(Cl)c(F)c2n1CC(=O)N1CCCCC1CCn1cccn1 (centres undefined)
< 500 nM	Cc1c(Sc2cccc(C(=O)O)c2F)c2ccc(Cl)c(F)c2n1CC(=O)N1CCC(C(C)(C)O)C1 (centres undefined)
< 500 nM	Cc1c(Sc2cccc(C(=O)O)c2)c2ccc(Cl)c(F)c2n1CC(=O)N1CCC(C#N)C1 (centres undefined)
< 500 nM	Cc1c(Sc2cccc(C(=O)O)c2)c2ccc(Cl)c(F)c2n1CC(=O)N1CCC(c2cnn(C)c2)CC1

SMILES	IC50
Cc1c(Sc2cccc(C(=O)O)c2)c2ccc(Cl)c(F)c2n1CC(=O)N1CC2(CCN(C)CC2)c2ccccc21	< 500 nM
O=C(O)c1cccc(Sc2c(C3CC3)n(CC(=O)N3CCC(O)(C(F)(F)F)C3)c3c(F)c(Cl)ccc23)c1F (centres undefined)	< 500 nM
O=C(O)c1cccc(Sc2c(Cl)n(CC(=O)N3CC4(CC4)c4ccccc43)c3c(F)c(Cl)ccc23)c1F	< 500 nM
O=C(O)c1cccc(Sc2c(Cl)n(CC(=O)N3CCC(O)(C(F)(F)F)C3)c3c(F)c(Cl)ccc23)c1F (centres undefined)	< 500 nM
O=C(O)c1cccc(Sc2c(C3CC3)n(CC(=O)N3CC4(CCC4)c4ccccc43)c3c(F)c(Cl)ccc23)c1F	< 500 nM
O=C(O)c1cccc(Sc2c(C3CC3)n(CCN3CC4(CCC4)c4ccccc43)c3c(F)c(Cl)ccc23)c1F	< 500 nM
O=C(O)c1cccc(Sc2c(C3CC3)n(CC(=O)N3CC4(CC4)c4ccccc43)c3c(F)c(Cl)ccc23)c1F	< 500 nM
